Test results reported in patent US20110172296A1, “MODULATION OF TRANSFORMING GROWTH FACTOR-BETA 1 EXPRESSION” (priority 2010, published 2011).
Values joined by “and” are separate entries in the source; they are usually repeats but may differ in a detail not shown here. Identical values can stand only once. In the oligonucleotide strings, read from the 5' end, every base follows the letter of its sugar. An asterisk marks phosphorothioate; unmarked linkages are phosphodiester. Other units and linkages are bracketed, terminal groups are in braces. A string of capitals states the bases alone. e = 2'-O-(2-methoxyethyl) (MOE); [5mC] = 5-methylcytosine; d = 2'-deoxy (DNA)

Test system: human TGF-beta1 mRNA
Experiment: Antisense inhibition of human TGF-beta1 mRNA in HuVEC cells, single 10 nM dose, Lipofectamine 2000 (Example 2)
Type: cell-based
Conditions: for % inhibition: 10 nM oligonucleotide, HuVEC, relative to untreated control cells; for inhibition of a TGF-beta1 mRNA: threshold lists of Oligo IDs, 10 nM
Procedure, shortened: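 Percent inhibition relative to untreated controls, from qRT-PCR of mRNA corrected for total RNA (RIBOGREEN). Cells were exposed 4 h to 10 nM phosphorothioate 2-13-5 MOE gapmers with Lipofectamine 2000 at 5,000 cells/well. RNA was harvested after roughly 24 h recovery.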

[1] = gapmers targeted to SEQ ID NO: 1
[2] = gapmers targeted to SEQ ID NO: 2

Substance | % inhibition [1] [%] | % inhibition [2] [%] | inhibition of a TGF-beta1 mRNA
413990 (antisense eG*e[5mC]*dG*dG*d[5mC]*dA*dA*dA*dG*dG*dG*dA*dG*dG*d[5mC]*eG*eG*eT*e[5mC]*eT) [compound 413990] | 59 |  | 
414110 (antisense eG*eA*dA*d[5mC]*dA*dA*dA*dT*dT*dT*dT*d[5mC]*d[5mC]*dT*dA*eT*eG*eA*eA*eA) [compound 414110] |  | 14 | 
413969 (antisense e[5mC]*eG*dA*d[5mC]*dT*d[5mC]*d[5mC]*dT*dT*d[5mC]*d[5mC]*dT*d[5mC]*d[5mC]*dG*e[5mC]*eT*e[5mC]*e[5mC]*eG) [compound 413969] | 53 |  | 
414006 (antisense eT*eA*d[5mC]*d[5mC]*dA*dG*dA*dA*dG*dG*dT*dG*dG*dG*dT*eG*eG*eT*e[5mC]*eT) [compound 414006] | 85 |  | 60% and 65% and 70% and 75% and 80% and 85%
414109 (antisense eG*eG*d[5mC]*d[5mC]*dA*dA*dT*dT*dT*d[5mC]*d[5mC]*dA*dT*dT*dG*e[5mC]*eA*eT*e[5mC]*eT) [compound 414109] |  | 80 | 60% and 65% and 70% and 75% and 80%
414052 (antisense eA*e[5mC]*dA*d[5mC]*dA*dT*dG*dT*dG*d[5mC]*dA*dT*dT*dT*dG*eT*eT*eG*eG*eG) [compound 414052] |  | 52 | 
414042 (antisense e[5mC]*eG*d[5mC]*d[5mC]*d[5mC]*dA*dA*dT*dG*dA*d[5mC]*dA*d[5mC]*dA*dG*eA*eG*eA*eT*e[5mC]) [compound 414042] | 68 |  | 60% and 65%
414092 (antisense eG*eA*dG*dA*dT*dA*d[5mC]*d[5mC]*dA*dA*dT*dA*dT*dT*d[5mC]*eT*eG*e[5mC]*eT*eT) [compound 414092] |  | 86 | 60% and 65% and 70% and 75% and 80% and 85%
414045 (antisense eA*eG*d[5mC]*d[5mC]*dA*dG*dT*dT*dT*d[5mC]*dT*dT*d[5mC]*dT*dG*e[5mC]*e[5mC]*eA*eG*eT) [compound 414045] |  | 80 | 60% and 65% and 70% and 75% and 80%
414075 (antisense eG*eA*dT*dT*dA*dG*d[5mC]*d[5mC]*dA*dA*dT*d[5mC]*dA*d[5mC]*dT*e[5mC]*eA*eG*eG*eT) [compound 414075] |  | 75 | 60% and 65% and 70% and 75%
414064 (antisense eT*eG*dT*dG*dA*d[5mC]*d[5mC]*dT*dT*dG*dA*dG*dG*dA*dA*eG*eT*eG*eG*eT) [compound 414064] |  | 61 | 60%
414077 (antisense eT*e[5mC]*d[5mC]*dA*dG*dG*d[5mC]*d[5mC]*dT*dT*dT*dG*d[5mC]*dA*d[5mC]*eA*eG*eG*e[5mC]*eT) [compound 414077] |  | 71 | 60% and 65% and 70%
414026 (antisense e[5mC]*e[5mC]*dT*d[5mC]*dA*dG*dG*d[5mC]*dT*d[5mC]*dG*dG*dG*d[5mC]*dT*e[5mC]*e[5mC]*eG*eG*eT) [compound 414026] | 82 |  | 60% and 65% and 70% and 75% and 80%
414117 (antisense eA*eG*dT*dG*d[5mC]*dA*dA*dT*dA*d[5mC]*dG*dG*dT*dA*dT*eT*eG*e[5mC]*eA*eG) [compound 414117] |  | 81 | 60% and 65% and 70% and 75% and 80%
413967 (antisense eG*eA*dT*dG*dG*d[5mC]*d[5mC]*d[5mC]*dA*dG*dG*dG*d[5mC]*dG*d[5mC]*eG*eA*eA*eG*eG) [compound 413967] | 64 |  | 60%
